Experimental data published in patent US6172185A, “Antimicrobial cationic peptide derivatives of bactenecin” (priority 1998, dated 2001).
Where a SMILES comes first, the peptide text is derived from it. Where no end group is shown, it is not given here.

Assays:
Staph. aureus = assay: MIC, modified two-fold microtitre broth dilution; type: cell-based, Staphylococcus aureus
Text: (§1) Bacterial strains for antimicrobial activity testing included Escherichia coli UB1005 and its antibiotic supersusceptible derivative DC2 (Richmond et al., Antimicrob. Agents Chemother. 10:215, 1976), Pseudomonas aeruginosa K799 and its antibiotic-supersusceptible derivative Z61 (Angus et al., Antimicrob. Agents Chemother. 21:299, 1982), Salmonella typhimurium 14028s and its defensin-supersusceptible derivative MS7953s (Fields et al., Science, 243:1059, 1989), Staphylococcus aureus ATCC25923 and a clinical isolate Staphylococcus aureus SAP1007. Other Gram-positive bacterial strains include Staphylococcus epidermidis (clinical isolate) and Enterococcus faecalis ATCC29212, Listeria monocytogenes, Corynebacterium xerosis, Streptococcus pneumoniae ATTC49619, Streptococcus pyogenes ATTC19615, Streptococcus mitis.
(§2) The minimal inhibitory concentration (MIC) of peptides was determined by a modified two-fold microtitre broth dilution method modified from that of Steinberg et al (Steinberg, Antimicrob. Agents Chemother. 41:1738, 1997). Using the classical method (Amsterdam, Antibiotics in Laboratory Medicine (Lorian, V., ed) pp. 72-78, 1991), higher concentrations of peptides tend to precipitate in the LB broth, thus the concentrations of peptides in the sequential wells are not accurate. Also the peptides stick to the most readily available (tissue-culture treated polystyrene) 96-well microtitre plates. Therefore the 2× series of dilutions was performed in Eppendoff tubes (polypropylene) before mixing with LB broth. Serial of two fold dilutions of peptides ranging from 640 μg/ml to 1.25 μg/ml were made in 0.2% BSA, 0.01% acetic acid buffer in the Eppendoff tubes. Ten μl of each concentration was added to each corresponding well of a 96-well microtiter plate (polypropylene cluster; Costar Corporation, Cambridge, Mass.). Bacteria were grown overnight and diluted 10-5 into fresh LB broth or Todd Hewitt broth for Streptococcus. LB medium contained 10 g/1l tryptone and 5 g/yeast extract, with no salt. Todd Hewitt contained 500 g/l beef heart infusion, 20 g/l bacto neopeptone, 2 g/l bacto dextrose, 2 g/l sodium chloride, 0.4 g/l disodium phosphate, 2.5 g/l sodium carbonate. One hundred […] containing about 10^4-10^5 CFU/ml of tested bacteria was added to each well. The plate was incubated at 37° C. overnight. The MIC was taken as the concentration at which greater than 90% of growth inhibition was observed.

Strep. mitis = assay: MIC, modified two-fold microtitre broth dilution; type: cell-based, Streptococcus mitis; conditions: for MIC Strep. mitis: Table IID, linear (Group 2): reduced forms of the peptides, Bac (Oxidized) as comparator
Text: as §1, §2

Strep. pneumoniae = assay: MIC, modified two-fold microtitre broth dilution; type: cell-based, Streptococcus pneumoniae; conditions: for MIC Strep. pneumonia: Table IID, linear (Group 2): reduced forms of the peptides, Bac (Oxidized) as comparator; for MIC S. pneumoniae: Table IVB, non-linear hydrophobicity modification derivatives; for MIC S. pneumonia: Table IIIB, non-linear positive-charge modification derivatives
Text: as §1, §2

P.aeruginosa = assay: MIC, modified two-fold microtitre broth dilution; type: cell-based, Pseudomonas aeruginosa
Text: as §1, §2

E.coli UB1005 = assay: MIC, modified two-fold microtitre broth dilution; type: cell-based, Escherichia coli
Text: as §1, §2

Listeria monocytogenes = assay: MIC, modified two-fold microtitre broth dilution; type: cell-based
Text: as §1, §2

Staph. epidermidis = assay: MIC, modified two-fold microtitre broth dilution; type: cell-based, Staphylococcus epidermidis
Text: as §1, §2

S.typhimurium = assay: MIC, modified two-fold microtitre broth dilution; type: cell-based, Salmonella typhimurium
Text: as §1, §2

C. xerosis = assay: MIC, modified two-fold microtitre broth dilution; type: cell-based, Corynebacterium xerosis
Text: as §1, §2

Strep. pyogenes = assay: MIC, modified two-fold microtitre broth dilution; type: cell-based, Streptococcus pyogenes; conditions: for MIC Strep. pyogeness: Table IID, linear (Group 2): reduced forms of the peptides, Bac (Oxidized) as comparator
Text: as §1, §2

E.facaelis = assay: MIC, modified two-fold microtitre broth dilution; type: cell-based, Enterococcus faecalis
Text: as §1, §2

[1] = Table IID, linear (Group 2): reduced forms of the peptides, Bac (Oxidized) as comparator
[2] = Table IVB, non-linear hydrophobicity modification derivatives
[3] = Table IIC, linear (Group 2): reduced forms of the peptides, Bac (Oxidized) as comparator
[4] = Table IVA, non-linear hydrophobicity modification derivatives
[5] = Table IIIB, non-linear positive-charge modification derivatives
[6] = table IIA, non-linear positive-charge modification derivatives

Compound	MIC Staph. aureus (Staph. aureus; [1])	MIC Strep. mitis (Strep. mitis)	MIC Strep. pneumonia (Strep. pneumoniae)	MIC P. aeruginosa (P.aeruginosa; [3])	Minimal Agglutinating Concentration, Oxidized Form (Human Red Blood Cells)	Minimal Agglutinating Concentration, Reduced Form (Human Red Blood Cells)	MIC E.coli UB1005 (E.coli UB1005; [3])	MIC Listeria (Listeria monocytogenes; [1])	MIC Staph. epidermidis (Staph. epidermidis; [1])	MIC S. typhimurium (S.typhimurium; [3])	MIC C. xerosis (C. xerosis; [1])	MIC Strep. pyogeness (Strep. pyogenes)	MIC E.facaelis (E.facaelis; [1])	MIC Staph. aureus (Staph. aureus; [5])	MIC S. mitis (Strep. mitis; [5])	MIC P. aeruginosa (P.aeruginosa; [6])	MIC E.coli UB1005 (E.coli UB1005; [6])	MIC Staph. epidermidis (Staph. epidermidis; [5])	MIC S. typhimurium (S.typhimurium; [6])	MIC E.facaelis (E.facaelis; [5])	other results
RRLCRIVWVIRVCRR [Bac 2R, W, tested oxidized and reduced]	> 64 µg/mL	2 µg/mL	64 µg/mL	> 64 µg/mL	32 µg/mL	8 µg/mL	> 64 µg/mL	4 µg/mL	32 µg/mL	> 64 µg/mL	2 µg/mL	32 µg/mL	> 64 µg/mL								MIC Staph. aureus (Staph. aureus; [2]): 2 µg/mL; MIC S. mitis (Strep. mitis; [2]): 0.25 µg/mL; MIC S. pneumoniae (Strep. pneumoniae): 8 µg/mL; MIC P. aeruginosa (P.aeruginosa; [4]): 2 µg/mL; concentration causing agglutination of human red blood cells (Human Red Blood Cells): 16 to 32 µg/mL; MIC E.coli UB1005 (E.coli UB1005; [4]): 2 µg/mL; MIC Listeria (Listeria monocytogenes; [2]): 0.25 µg/mL; MIC Staph. epidermidis (Staph. epidermidis; [2]): 1 µg/mL; MIC S. typhimurium (S.typhimurium; [4]): 2 µg/mL; MIC C. xerosis (C. xerosis; [2]): 0.25 µg/mL; MIC Strep. pyogenes (Strep. pyogenes; [2]): 1 µg/mL; MIC E.facaelis (E.facaelis; [2]): 2 µg/mL
RRLCRIVVIRVCRR [Bac 2R, tested oxidized and reduced]	> 64 µg/mL	0.5 µg/mL	> 64 µg/mL	16 µg/mL	64 µg/mL	32 µg/mL	4 µg/mL	0.5 µg/mL	4 µg/mL	32 µg/mL	0.25 µg/mL	16 µg/mL	4 µg/mL	64 µg/mL	0.5 µg/mL	4 µg/mL	2 µg/mL	8 µg/mL	4 µg/mL	32 µg/mL	MIC S. pneumonia (Strep. pneumoniae): > 64 µg/mL; MIC against P. aeruginosa, times better than native bactenecin (P.aeruginosa): 2 X; MIC Listeria (Listeria monocytogenes; [5]): < 0.125 µg/mL; MIC against S. typhimurium, times better than native bactenecin (S.typhimurium): 2 X; MIC C. xerosis (C. xerosis; [5]): 1 µg/mL; MIC Strep. pyogenes (Strep. pyogenes; [5]): 8 µg/mL
RRRLCPIVIRVCRR [Bac 3R, P, (V), tested oxidized and reduced]	> 64 µg/mL	1 µg/mL	> 64 µg/mL	32 µg/mL	> 64 µg/mL	32 µg/mL	4 µg/mL	1 µg/mL	8 µg/mL	32 µg/mL	0.5 µg/mL	8 µg/mL	32 µg/mL	> 64 µg/mL	1 µg/mL	8 µg/mL	2 µg/mL	16 µg/mL	8 µg/mL	> 64 µg/mL	MIC S. pneumonia (Strep. pneumoniae): > 64 µg/mL; MIC Listeria (Listeria monocytogenes; [5]): 1 µg/mL; MIC C. xerosis (C. xerosis; [5]): 4 µg/mL; MIC Strep. pyogenes (Strep. pyogenes; [5]): 4 µg/mL
RICRIVVIRCIR-NH2 (cysteine pairing not given here) [Bac 2I-NH2]					32 µg/mL									32 µg/mL		16 µg/mL	4 µg/mL	8 µg/mL	8 µg/mL	> 32 µg/mL	
RRCPIVVIRVCR-NH2 (cysteine pairing not given here) [Bac R, P-NH2]					> 64 µg/mL									32 to 64 µg/mL	2 µg/mL	16 µg/mL	2 µg/mL	32 µg/mL	16 µg/mL	> 64 µg/mL	MIC S. pneumonia (Strep. pneumoniae): > 64 µg/mL; MIC Listeria (Listeria monocytogenes; [5]): 1 µg/mL; MIC C. xerosis (C. xerosis; [5]): 2 µg/mL; MIC Strep. pyogenes (Strep. pyogenes; [5]): 16 µg/mL
RLARIVVIRVAR-NH2 [Bac 2A-NH2, RLARIVVIRVAR-NH2]					> 64 µg/mL																
RLCPRVRIRVCR-NH2 (cysteine pairing not given here) [Bac 2R, P-NH2]					> 32 µg/mL									> 32 µg/mL		16 µg/mL	4 µg/mL	16 µg/mL	32 µg/mL	> 32 µg/mL	
CC[C@H](C)[C@@H]1NC(=O)[C@H](C(C)C)NC(=O)[C@H](C(C)C)NC(=O)[C@H]([C@@H](C)CC)NC(=O)[C@@H]2CCCN2C(=O)[C@@H](NC(=O)[C@H](CCCNC(=N)N)NC(=O)[C@@H](N)CCCNC(=N)N)CSSC[C@@H](C(=O)N[C@@H](CCCNC(=N)N)C(=O)O)NC(=O)[C@H](C(C)C)NC(=O)[C@H](CCCNC(=N)N)NC1=O [Bac R, P, RRCPIVVIRVCR] (HELM PEPTIDE1{R.R.C.P.I.V.V.I.R.V.C.R}$PEPTIDE1,PEPTIDE1,3:R3-11:R3$$$V2.0)					> 64 µg/mL																
RLCRIVWVIRVCR [Bac W, tested oxidized and reduced]	> 64 µg/mL	1 µg/mL	32 µg/mL	> 64 µg/mL	32 µg/mL	4 µg/mL	> 64 µg/mL	2 µg/mL	32 µg/mL	64 µg/mL	1 µg/mL	16 µg/mL	32 µg/mL								MIC Staph. aureus (Staph. aureus; [2]): 4 µg/mL; MIC S. mitis (Strep. mitis; [2]): 1 µg/mL; MIC S. pneumoniae (Strep. pneumoniae): 16 µg/mL; MIC P. aeruginosa (P.aeruginosa; [4]): 4 µg/mL; MIC E.coli UB1005 (E.coli UB1005; [4]): 8 µg/mL; MIC Listeria (Listeria monocytogenes; [2]): 0.5 µg/mL; MIC Staph. epidermidis (Staph. epidermidis; [2]): 2 µg/mL; MIC S. typhimurium (S.typhimurium; [4]): 4 µg/mL; MIC C. xerosis (C. xerosis; [2]): 1 µg/mL; MIC Strep. pyogenes (Strep. pyogenes; [2]): 2 µg/mL; MIC E.facaelis (E.facaelis; [2]): 8 µg/mL
RLSRIVVIRVSR-NH2 [Bac 2S-NH2, RLSRIVVIRVSR-NH2]					> 64 µg/mL																
RRRCPIVVIRVCRR [Bac 3R, P, tested oxidized and reduced]	> 64 µg/mL	0.5 µg/mL	> 64 µg/mL	> 64 µg/mL	64 µg/mL	16 µg/mL	8 µg/mL	2 µg/mL	16 µg/mL	> 64 µg/mL	0.5 µg/mL	16 µg/mL	64 µg/mL	> 64 µg/mL	1 µg/mL	8 µg/mL	2 µg/mL	16 µg/mL	8 µg/mL	32 µg/mL	MIC S. pneumonia (Strep. pneumoniae): > 64 µg/mL; MIC Listeria (Listeria monocytogenes; [5]): 0.5 µg/mL; MIC C. xerosis (C. xerosis; [5]): 4 µg/mL; MIC Strep. pyogenes (Strep. pyogenes; [5]): 8 µg/mL
RLSRIVVIRVCR-NH2 [Bac S-NH2, RLSRIVVIRVCR-NH2]					> 64 µg/mL																
